Measurements taken from ChEMBL document CHEMBL1148225, “Discovery and SAR of trisubstituted thiazolidinones as CCR4 antagonists” (Bioorg Med Chem Lett, 2004).
Several values for one entry are separate records, joined by “and”; a condition that tells them apart may be missing. Equal entries are not always repeated.

Target: T1, C-C chemokine receptor type 4 (Homo sapiens, UniProt P51679)
T1 sequence (P51679 whole entry): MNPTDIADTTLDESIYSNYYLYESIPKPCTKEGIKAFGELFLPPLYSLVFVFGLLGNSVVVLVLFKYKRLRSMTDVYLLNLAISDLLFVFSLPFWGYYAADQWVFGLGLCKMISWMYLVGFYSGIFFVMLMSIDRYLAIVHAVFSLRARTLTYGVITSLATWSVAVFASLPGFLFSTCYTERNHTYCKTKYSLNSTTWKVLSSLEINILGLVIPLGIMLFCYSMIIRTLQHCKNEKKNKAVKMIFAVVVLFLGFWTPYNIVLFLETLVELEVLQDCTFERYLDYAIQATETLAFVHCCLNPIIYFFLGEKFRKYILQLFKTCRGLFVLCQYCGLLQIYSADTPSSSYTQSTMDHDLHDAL
Test: Inhibition of [125I]MDC binding to recombinant human C-C chemokine receptor type 4 (CCR4) expressed in murine pre-B cells
Type: cell-based

## O=C(C[C@H]1S[C@H](C2CCCCC2)N(CC(=O)NCCCN2CCOCC2)C1=O)NCc1cccc2ccccc12
  IC50: 100 µM

## CC(C)(C)CCNC(=O)C[C@H]1S[C@H](c2ccc(Cl)cc2Cl)N(CC(=O)NCCCN2CCOCC2)C1=O
  IC50: 21 µM

## O=C(C[C@H]1S[C@H](c2ccc(Cl)cc2Cl)N(CC(=O)NCCCN2CCOCC2)C1=O)NCc1cc(Cl)ccc1Cl
  IC50: 4 µM

## O=C(C[C@H]1S[C@H](c2ccc(Cl)cc2Cl)N(CC(=O)NCCCN2CCOCC2)C1=O)NCc1ccc(Cl)c(C(F)(F)F)c1
  IC50: 6 µM

## C[C@H](NC(=O)C[C@H]1S[C@H](c2ccc(Cl)cc2Cl)N(CC(=O)NCCCN2CCOCC2)C1=O)c1cccc2ccccc12
  IC50: 8 µM

## O=C(C[C@H]1S[C@H](c2ccc(Cl)cc2Cl)N(CC(=O)NCCCN2CCOCC2)C1=O)NCc1cc(Cl)cc(Cl)c1
  IC50: 1.5 µM

## O=C(C[C@H]1S[C@H](c2ccc(Cl)cc2Cl)N(CC(=O)N2CCC(N3CCCC3)CC2)C1=O)NCc1cccc2ccccc12
  IC50: 0.6 µM

## O=C(C[C@H]1S[C@H](c2ccc(Cl)cc2Cl)N(CC(=O)N2CCNCC2)C1=O)NCc1cccc2ccccc12
  IC50: 1.4 µM

## O=C(C[C@H]1S[C@H](c2ccc(F)cc2Cl)N(CC(=O)NCCCN2CCOCC2)C1=O)NCc1cccc2ccccc12
  IC50: 1 µM

## Cc1cccc(CNC(=O)C[C@H]2S[C@H](c3ccc(Cl)cc3Cl)N(CC(=O)NCCCN3CCOCC3)C2=O)c1C
  IC50: 0.44 µM

## O=C(C[C@H]1S[C@H](c2ccc(Cl)cc2Cl)N(CC(=O)NCCCN2CCOCC2)C1=O)NCc1csc2ccccc12
  IC50: 0.34 µM

## O=C(C[C@H]1S[C@@H](c2ccc(Cl)cc2)N(CC(=O)NCCCN2CCOCC2)C1=O)NCc1cccc2ccccc12
  IC50: ~6 µM

## O=C(CN1C(=O)[C@@H](CC(=O)NC2CCCCC2)S[C@@H]1c1ccc(Cl)cc1Cl)NCCCN1CCOCC1
  IC50: 7 µM

## Cc1ccc([C@H]2S[C@H](CC(=O)NCc3cccc4ccccc34)C(=O)N2CC(=O)NCCCN2CCOCC2)c(C)c1
  IC50: 11 µM

## O=C(C[C@H]1S[C@H](c2ccc(Cl)cc2Cl)N(CC(=O)NCCCN2CCCC2)C1=O)NCc1cccc2ccccc12
  IC50: 0.31 µM

## O=C(C[C@H]1S[C@H](c2ccc(Cl)cc2Cl)N(CC(=O)NCCCN2CCOCC2)C1=O)NCc1cccc2ccccc12
  IC50: 0.69 µM

## O=C(C[C@H]1S[C@H](c2ccc(Cl)cc2Cl)N(CC(=O)NCCCN2CCCCC2)C1=O)NCc1cccc2ccccc12
  IC50: 0.2 µM

## O=C(C[C@H]1S[C@H](c2ccc(Cl)cc2Cl)N(CC(=O)NCCCCN2CCOCC2)C1=O)NCc1cccc2ccccc12
  IC50: 0.38 µM

## O=C(C[C@H]1S[C@H](c2ccc(Cl)cc2Cl)N(CC(=O)NCCCN2CCOCC2)C1=O)NCc1ccccc1Cl
  IC50: 10 µM

## O=C(C[C@H]1S[C@H](c2cc(Cl)cc(Cl)c2)N(CC(=O)NCCCN2CCOCC2)C1=O)NCc1cccc2ccccc12
  IC50: 9 µM

## O=C(C[C@H]1S[C@H](c2ccc(Cl)cc2Cl)N(CC(=O)NCCCN2CCOCC2)C1=O)NCc1cccc(F)c1
  IC50: 1.5 µM

## Cc1cccc(CNC(=O)C[C@H]2S[C@H](c3ccc(Cl)cc3Cl)N(CC(=O)NCCCN3CCOCC3)C2=O)c1
  IC50: 2.3 µM

## O=C(C[C@H]1S[C@H](c2ccc(Cl)cc2Cl)N(CC(=O)NCCCCCN2CCOCC2)C1=O)NCc1cccc2ccccc12
  IC50: 2.4 µM

## CN(C)CCCN1C(=O)[C@@H](CC(=O)NCc2cccc3ccccc23)S[C@@H]1c1ccc(Cl)cc1Cl
  IC50: 5.6 µM

## C[C@@H](NC(=O)C[C@H]1S[C@H](c2ccc(Cl)cc2Cl)N(CC(=O)NCCCN2CCOCC2)C1=O)c1ccccc1 (stereo in doubt)
  IC50: 8 µM

## O=C(C[C@H]1S[C@H](c2ccc(Cl)cc2Cl)N(CC(=O)NCCCN2CCOCC2)C1=O)NCc1cccc(Cl)c1
  IC50: 0.93 µM

## COc1ccc([C@H]2S[C@H](CC(=O)NCc3cccc4ccccc34)C(=O)N2CC(=O)NCCCN2CCOCC2)c(OC)c1
  IC50: 33 µM

## O=C(C[C@H]1S[C@H](c2ccc(Cl)cc2Cl)N(CC(=O)NCCCN2CCOCC2)C1=O)NCc1ccc2[nH]ccc2c1
  IC50: 1 µM

## O=C(C[C@H]1S[C@H](Cc2ccccc2)N(CC(=O)NCCCN2CCOCC2)C1=O)NCc1cccc2ccccc12
  IC50: > 100 µM

## O=C(C[C@H]1S[C@H](c2ccc(Cl)cc2Cl)N(CCCCN2CCOCC2)C1=O)NCc1cccc2ccccc12
  IC50: 18 µM

## O=C(CN1C(=O)[C@@H](CC(=O)NC(c2ccccc2)c2ccccc2)S[C@@H]1c1ccc(Cl)cc1Cl)NCCCN1CCOCC1
  IC50: 6 µM

## O=C(C[C@H]1S[C@H](c2ccc(Cl)cc2Cl)N(CC(=O)NCCCN2CCOCC2)C1=O)NCc1ccc(Cl)cc1Cl (stereo in doubt; 72)
  IC50: 3 µM

## O=C(C[C@H]1S[C@H](c2ccc(Cl)cc2Cl)N(CC(=O)NCCCN2CCOCC2)C1=O)NCc1ccc(-c2ccccc2)cc1
  IC50: 2.5 µM

## CN(C)CC(=O)NCCN1C(=O)[C@@H](CC(=O)NCc2cccc3ccccc23)S[C@@H]1c1ccc(Cl)cc1Cl
  IC50: 11 µM

## Cc1ccccc1CNC(=O)C[C@H]1S[C@H](c2ccc(Cl)cc2Cl)N(CC(=O)NCCCN2CCOCC2)C1=O
  IC50: 11 µM

## O=C(C[C@H]1S[C@H](c2cccc(Cl)c2Cl)N(CC(=O)NCCCN2CCOCC2)C1=O)NCc1cccc2ccccc12
  IC50: 18 µM

## O=C(C[C@H]1S[C@H](c2ccc(Cl)c(Cl)c2)N(CC(=O)NCCCN2CCOCC2)C1=O)NCc1cccc2ccccc12
  IC50: > 25 µM

## CC(C)CCNC(=O)C[C@H]1S[C@H](c2ccc(Cl)cc2Cl)N(CC(=O)NCCCN2CCOCC2)C1=O
  IC50: 19 µM

## O=C(C[C@H]1S[C@H](c2ccc(Cl)cc2Cl)N(CC(=O)N2CCC(N3CCCCC3)CC2)C1=O)NCc1cccc2ccccc12
  IC50: 0.33 µM

## O=C(C[C@H]1S[C@H](c2ccc(F)cc2)N(CC(=O)NCCCN2CCOCC2)C1=O)NCc1cccc2ccccc12
  IC50: 4 µM

## C[C@@H](NC(=O)C[C@H]1S[C@H](c2ccc(Cl)cc2Cl)N(CC(=O)NCCCN2CCOCC2)C1=O)c1cccc2ccccc12
  IC50: 0.25 µM

## O=C(C[C@H]1S[C@H](c2ccc(Cl)cc2)N(CC(=O)NCCCN2CCOCC2)C1=O)NCc1cccc2ccccc12
  IC50: 0.83 µM

## O=C(C[C@H]1S[C@H](c2ccc(Cl)cc2Cl)N(CC(=O)NCCCN2CCOCC2)C1=O)NCc1cccc(-c2ccccc2)c1
  IC50: 1.3 µM

## O=C(CN1C(=O)[C@@H](CC(=O)NC2CCCc3ccccc32)S[C@@H]1c1ccc(Cl)cc1Cl)NCCCN1CCOCC1 (some centres undefined)
  IC50: 6.7 µM

## O=C(C[C@H]1S[C@H](c2ccncc2)N(CC(=O)NCCCN2CCOCC2)C1=O)NCc1cccc2ccccc12
  IC50: 34 µM

## O=C(C[C@H]1S[C@H](c2ccc(Cl)cc2Cl)N(Cc2cccc(CN3CCOCC3)c2)C1=O)NCc1cccc2ccccc12
  IC50: 100 µM

## COc1ccc(CNC(=O)C[C@H]2S[C@H](c3ccc(Cl)cc3Cl)N(CC(=O)NCCCN3CCOCC3)C2=O)c(OC)c1OC
  IC50: 11 µM

## O=C(C[C@H]1S[C@H](c2ccc(Cl)cc2Cl)N(CCCN2CCOCC2)C1=O)NCc1cccc2ccccc12
  IC50: 33 µM

## O=C(C[C@H]1S[C@H](c2cc(Cl)ccc2Cl)N(CC(=O)NCCCN2CCOCC2)C1=O)NCc1cccc2ccccc12
  IC50: 12 µM

## O=C(CC1SC(c2ccc(Cl)cc2)N(CC(=O)NCCCN2CCOCC2)C1=O)NCc1cccc2ccccc12 (centres undefined)
  IC50: 2.4 µM and 0.83 µM

## Cc1ccc(CNC(=O)C[C@H]2S[C@H](c3ccc(Cl)cc3Cl)N(CC(=O)NCCCN3CCOCC3)C2=O)n1C
  IC50: 2.5 µM

## O=C(C[C@H]1S[C@H](c2ccc(Cl)cc2Cl)N(CCC(=O)N2CCNCC2)C1=O)NCc1cccc2ccccc12
  IC50: 3.5 µM

## NCCNC(=O)CCN1C(=O)[C@@H](CC(=O)NCc2cccc3ccccc23)S[C@@H]1c1ccc(Cl)cc1Cl
  IC50: 9 µM

## O=C(C[C@H]1S[C@H](c2c(Cl)cccc2Cl)N(CC(=O)NCCCN2CCOCC2)C1=O)NCc1cccc2ccccc12
  IC50: 8 µM
